Source: a melting point compilation (Tetko et al.; mined from patent text by program, amines drawn as free bases though some values may be those of a salt)

SMILES	melting point [°C]
Cn1nc(N)c2sc3cc(O)c(O)cc3c21	305 to 307
CN(C(=O)Cc1ccc(Cl)c(Cl)c1)[C@@H]1Cc2ccccc2C[C@H]1N1CCCC1 (relative stereo)	161 to 164
CC(C)(C)OP(=O)(CO)OC(C)(C)C	100 to 102
Cc1ccc(C(=O)NCC(C)O)cc1C (configuration not stated)	77 to 78
CC1(C)CCC(C)(C)c2cc(C(=O)Nc3ccc(I)cc3)ccc21	224
O=C1NCCN1Cc1ccncc1	153 to 155
CCC(O)(C#Cc1ncn2c1CN(C)C(=O)c1cc(F)ccc1-2)CC	135 to 136
CC(=O)c1ccc(C2CC(C)(C)CC(C)(C)C2)c(Cl)c1	64
CCOC(=O)c1ccc(CSc2nnc(S)s2)cc1	114 to 115
Cc1ccncc1C(N)=S	104 to 106
CCCc1c2nc(C(=O)OC)cc(Cl)c2cc2c(=O)cc(C(=O)OCC)oc12	176 to 178
Cn1cc(C#N)nc1-c1ncc[nH]1	238 to 239
COc1ccc(I)cc1CN	95 to 97
OC1CCc2cc3c(cc21)OCO3 (configuration not stated)	92 to 94
O=[N+]([O-])c1cnn(-c2ccc(Cl)nn2)c1	169 to 172
CCCC(C)SC(=O)c1ccc(NC(=O)NC)cc1Cl (configuration not stated)	89 to 95
CNC(=O)C1CCC(c2csc(NC(=N)N)n2)C1 (configuration not stated)	216 to 218
COC(=O)c1c(C)c(-c2cccnc2)n2c1CSC2	91
COCC1OC(=O)NC1c1ccccc1OC(C)(O)C1CCCCC1 (configuration not stated)	87
CCCCNC(=O)OCC(=O)O	83 to 84
CC(C)CCn1cc(C(=O)O)c2ccc(Cl)cc21	53 to 55
CC(C)(C)C(F)(F)c1ccc(C(N)=O)cc1	128 to 132
S=P(SC1CCCCC1)(C1CCCCC1)C1CCCCC1	82 to 85
CC(C)C(=O)Nc1csc(Br)n1	95
CN(C)C(=C[N+](=O)[O-])NCc1ccc(Cl)cc1	133 to 135
CCCCCCCCCCCCCCCCS(=O)(=O)OCc1cc(OC)c(OC)cc1[N+](=O)[O-]	81 to 82
CCOC(=O)CNc1c(Br)cc(Br)cc1Br	81 to 82
CCc1ccc2c(c1)C1CN(CCCC(=O)c3ccc(F)cc3)CCC1N2 (configuration not stated)	192 to 195
C=CCOC1OC(C)C(OCc2ccccc2)C(OCc2ccccc2)C1OC1OC(C)C(OCc2ccccc2)C(OCc2ccccc2)C1O (configuration not stated)	98 to 99

Other lines, results leading:

melting point [°C]	SMILES
118 to 119	O=C(OC1C(=O)NC1c1ccccc1)c1ccccc1 (configuration not stated)
74 to 76	CC(=O)CN1C(=O)COc2ccccc21
120 to 121	CCOC(=O)c1nc(NC)sc1-c1ccccn1
224 to 225	O=C(O)c1cc(OCc2ccccn2)c(C(=O)c2ccccc2)c([N+](=O)[O-])c1
120	Cc1sc(C=O)cc1NC(=O)OCc1ccccc1
175 to 176	Cc1ccc(-c2ccc3c(c2)C=C(C(=O)Nc2ccc(CN4CCCCC4)cc2)CC(C)O3)cc1 (configuration not stated)
212	Clc1ccc(-c2nc(NCc3ccccc3)c3ccccc3n2)cn1
230 to 232	CC(=O)Nc1ccccc1CCc1ccccn1
128 to 131	CSC(Nc1cc(Cl)cc(Cl)c1)=C(C#N)S(=O)(=O)c1ccc(Cl)cc1
165 to 167	O=C(O)[C@H](Cc1ccccc1)Nc1c(N2CCN(c3ccccc3)CC2)c(=O)c1=O
105 to 110	Nc1cccc(-n2cnc3c([N+](=O)[O-])cccc32)c1
73 to 74	Cc1oc(-c2ccccc2)nc1COc1ccc(CCCC#N)cc1
132 to 133	O=C1C(Cl)=C(c2ccccc2)C(=O)N1c1ccccc1Cl
89 to 90	CCOP(=O)(/C=C/c1cn(-c2ccccc2)nc1OCc1ccc(OCc2nc(/C=C/C(=O)O)oc2C)c(OC)c1)OCC
93	COC(=O)c1cccc(OCCCOc2cc3c(cc2O)CCO3)c1
> 285	CCn1c(=O)c2[nH]c(/C=C/c3cccc(OC)c3[N+](=O)[O-])nc2n(CC)c1=O
123 to 125	O=S(=O)(NCC1CCN(CCCOc2ccc(F)cc2)CC1)c1cccc2cnccc12
246	CCOC(=O)c1cn2c3c(c(-c4ccccc4)ccc3c1=O)OCC2C (configuration not stated)
91 to 92.5	CCCCc1nnc(-c2ccco2)n1Cc1ccc([N+](=O)[O-])cc1
185 to 186	O=S(=O)(Nc1n[nH]c(SCc2ccc(Oc3ccc(F)cc3)cc2)c1-c1ccccn1)c1c(Cl)cccc1Cl
200 to 202	CNC(=O)c1cnn(-c2ccccn2)c1C#N
159 to 161	OC1CCN(Cc2ccc(Br)cc2)CC1N1CCC(c2ccccc2)CC1 (configuration not stated)

melting point [°C]	SMILES
160	Cc1ccccc1C1=C(CC(=O)Nc2c(C(C)C)cccc2C(C)C)CN(C)c2ccc(Cl)cc21
195 to 201	CC(=O)Nc1cc(C(C)(C)C)nn1C(CCN1C(=O)c2ccccc2C1=O)=NOS(=O)(=O)c1ccc(C)cc1
213 to 216	OC(c1ccccc1)c1ccc(Nc2nccc(-c3cnc4ccccn34)n2)cc1 (configuration not stated)
101 to 102	O[C@@H](CNCCOc1ccc2sc(-c3ncon3)cc2c1)COc1ccccc1
142 to 144	COc1cccc(Oc2c(NS(=O)(=O)c3ccc(C(C)(C)C)cc3)ncnc2OCCOc2ncc(C(C)=O)cn2)c1
178 to 182	COCCn1c(Oc2ccc(-n3c4ncccc4n4ccnc34)cc2)nc2cccnc21
145 to 147	CCC(=O)OCC(=O)Nc1nc2ccc(OC)cc2s1
94	COc1ccc(-c2nc(Sc3ccccn3)[nH]c2-c2ccc(OC)cc2)cc1
87 to 89	BrCCCCCCOc1nc(-c2ccccc2)c(-c2ccccc2)n1-c1ccccc1
96 to 98	O=C(O)c1ccccc1C(=O)OC1CCN(c2cc(-c3ccccc3)nc(-c3ccccc3)n2)CC1
212 to 214	COc1cn(-c2ccc(-n3cc(F)c(F)c3)cc2F)nc(-c2ccnn2-c2ccccc2)c1=O
221	CCOC(=O)Cn1c(=O)[nH]c2ccc(C(=O)c3c(-c4ccccc4)c(OC)c4ccccn34)cc2c1=O
125 to 126	CCCc1c(C(=O)C(C)C)c2ccc(C(N)=O)cc2n1C(=O)c1ccccc1Cl
129 to 131	COC(Cc1ccc(OCCc2nc(-c3ccccc3)oc2C)c2ccsc12)C(=O)O (configuration not stated)
125	Clc1cccc(-c2cc(Cl)nc3ccc(Br)cc23)c1
167 to 169	Cn1nc(-c2ccccc2)c(Oc2ccc(N)cc2)c1-c1ccccc1
62 to 64	CCCN(Cc1csc(C(C)C)n1)C(=O)N[C@H](C(=O)N[C@@H](Cc1ccccc1)C[C@H](O)[C@H](Cc1ccccc1)NC(=O)OCc1cncs1)C(C)C
162 to 163	CCOC(=O)COc1ccc(C(=O)Nc2ccccc2Oc2ccccc2-c2nnn[nH]2)cc1
156 to 158	COc1ccc(C(=O)Nc2ccccc2)cc1
170 to 172	COc1ccc(CNS(=O)(=O)c2ccc(C(CC3CCCC3)C(=O)Nc3nc4ccc(OC)nc4s3)cc2)cc1 (configuration not stated)
88	O=c1oc(-c2cccc(-c3ccccc3)c2)cc(O)c1Sc1ccccc1CC1CC1
